Data from patent US20230321045A1 (priority 2022, published 2023).
Entries after “also recorded” stand apart in the source; their conditions may differ. Where two headings read alike, the source gives them in different places.

Legend:
H1N1 (PR8) [1] = system: H1N1 (PR8); parameters: species or system female Balb/c mice; settings: mouse, in vivo
H1N1 (PR8) [2] = system: H1N1 (PR8); parameters: species or system female Balb/c mice; settings: mouse, in vivo; remark: listed apart in the source
H1N1 (PR8) [3] = system: H1N1 (PR8); parameters: species or system female Balb/c mice; settings: mouse, in vivo; remark: listed apart in the source
H1N1 (PR8) [4] = system: H1N1 (PR8); parameters: species or system female Balb/c mice; settings: mouse, in vivo; remark: listed apart in the source
vaccinia virus [5] = assay type: cell-based
vaccinia virus [6] = assay type: cell-based; remark: listed apart in the source

C[C@@H]1C[C@H]2[C@@H]3CCC4=CC(=O)C=C[C@]4(C)[C@@]3(F)[C@@H](O)C[C@]2(C)[C@@]1(O)C(=O)CO [Dexamethasone]
BAL Cytokine level: IFN-γ (H1N1 (PR8) [1]): 4.80 ± pg/ml
BAL Cytokine level: IL-6 (H1N1 (PR8) [1]): 351.37 ± pg/ml
BAL Cytokine level: IP-10 (H1N1 (PR8) [1]): 1102.42 pg/mL
BAL Cytokine level: KC (H1N1 (PR8) [1]): 854.41 pg/mL
BAL Cytokine level: TNF-α (H1N1 (PR8) [1]): 24.08 pg/mL
change in CXCL-10 in BAL fluid (H1N1 (PR8) [1]): −8%
change in Interferon-γ (INF-γ) in BAL fluid (H1N1 (PR8) [1]): −81%
change in Interleukin-6 (IL-6) in BAL fluid (H1N1 (PR8) [1]): −52%
change in Keratinocyte-derived chemokine (KC) in BAL fluid (H1N1 (PR8) [1]): +20%
change in TNF-α in BAL fluid (H1N1 (PR8) [1]): −13%
BAL cell counts: Eosinophils (H1N1 (PR8) [2]): 0.03 million/animal
BAL cell counts: Lymphocytes (H1N1 (PR8) [2]): 0.15 million/animal
BAL cell counts: Mononuclear cells (H1N1 (PR8) [2]): 0.02 million/animal
BAL cell counts: Neutrophils (H1N1 (PR8) [2]): 0.34 million/animal
BAL cell counts: Totals (H1N1 (PR8) [2]): 0.54 million/animal

CCOC(=O)C1=C[C@@H](OC(CC)CC)[C@H](NC(C)=O)[C@@H](N)C1 [Oseltamivir]
BAL Cytokine level: IFN-γ (H1N1 (PR8) [1]): 2.78 ± pg/ml
BAL Cytokine level: IL-6 (H1N1 (PR8) [1]): 31.01 ± pg/ml
BAL Cytokine level: IP-10 (H1N1 (PR8) [1]): 147.64 ± pg/ml
BAL Cytokine level: KC (H1N1 (PR8) [1]): 88.29 ± pg/ml
BAL cytokine levels compared to the H1N1 control group (H1N1 (PR8) [1]): statistically significantly (p<0.01) lower TNFα, IFNγ, IL-6, KC, and IP-10; also recorded: statistically significantly lower BAL total cells, neutrophils, eosinophils, lymphocytes, mononuclear cells BAL IFNγ, IL-6, IP-10, KC and TNFα
body weight gain / body weight loss vs H1N1 vehicle control group (H1N1 (PR8) [3]): statistically significantly higher (p<0.01) body weight gain from Day 6 to Day 11; also recorded: attenuated the clinical signs and bodyweight loss
clinical signs associated with H1N1 infection (H1N1 (PR8) [3]): attenuation of the clinical signs; also recorded: attenuated the clinical signs
H1N1 induced higher PenH (H1N1 (PR8) [4]): completely attenuated H1N1 induced higher PenH
BAL cell counts: Eosinophils (H1N1 (PR8) [2]): 0.01 ± million/animal
BAL cell counts: Lymphocytes (H1N1 (PR8) [2]): 0.09 ± million/animal
BAL cell counts: Mononuclear cells (H1N1 (PR8) [2]): 0.01 ± million/animal
BAL cell counts: Neutrophils (H1N1 (PR8) [2]): 0.15 ± million/animal
BAL cell counts: Totals (H1N1 (PR8) [2]): 0.27 ± million/animal
BAL total and differential cells compared to the H1N1 control group (H1N1 (PR8) [2]): statistically significantly (p<0.01) lower BAL total cells, neutrophils, eosinophils, lymphocytes, and mononuclear cells

COc1cc(C(=O)c2cnc(-c3c[nH]c4ccccc34)[nH]2)cc(OC)c1OC.Cl [17ya hydrochloride salt]
toxicity to BSC40 cells (BSC40 cells): showed a dose response for toxicity
release of extracellular enveloped virus (EEV) from infected cells (vaccinia virus [5]): dose dependent inhibition of virus released
virus associated with the infected cells (IMV) (vaccinia virus [5]): not a good correlation between the amount of drug and the amount of virus produced
IC50 (vaccinia virus [5]; read-out: IC50, virus released into the media (EEV)): 24.3 nM
IC90 (vaccinia virus [5]; read-out: IC90, virus released into the media (EEV)): 37.8 nM
vaccinia virus cell-to-cell spread (vaccinia virus [6]): clear dose-dependent response
IC50 (vaccinia virus [6]; read-out: IC50, vaccinia virus cell-to-cell spread): 15.7 nM
IC90 (vaccinia virus [6]; read-out: IC90, vaccinia virus cell-to-cell spread): 27 nM
